# Measured values from ChEMBL document CHEMBL1201862, “PubChem BioAssay data set” (2004).
# Calls of active or inactive are those of the source.
# Legend:
# Cytochrome P450 1A2 = target: T1, Cytochrome P450 1A2 (Homo sapiens, UniProt P05177);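 further: PubChem cytochrome P450 panel assay, CYP1A2 panel member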
# T1 sequence (P05177 whole entry): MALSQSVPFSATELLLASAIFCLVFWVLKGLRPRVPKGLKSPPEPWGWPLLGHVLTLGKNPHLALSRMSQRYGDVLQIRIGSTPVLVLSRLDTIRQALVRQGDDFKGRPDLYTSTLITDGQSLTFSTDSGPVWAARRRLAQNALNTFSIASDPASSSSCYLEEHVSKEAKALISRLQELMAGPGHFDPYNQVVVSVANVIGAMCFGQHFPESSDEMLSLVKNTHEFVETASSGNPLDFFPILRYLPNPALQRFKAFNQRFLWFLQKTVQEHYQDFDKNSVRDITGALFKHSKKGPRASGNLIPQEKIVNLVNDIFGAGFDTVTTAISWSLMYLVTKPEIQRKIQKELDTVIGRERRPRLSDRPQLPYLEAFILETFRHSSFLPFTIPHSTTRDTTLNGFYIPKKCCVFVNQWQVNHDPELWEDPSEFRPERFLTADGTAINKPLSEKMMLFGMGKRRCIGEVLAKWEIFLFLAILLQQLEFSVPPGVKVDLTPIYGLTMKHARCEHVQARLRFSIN
# Cytochrome P450 2C19 = Cytochrome P450 2C19 (Homo sapiens, UniProt P33261); assay: Cytochrome panel assay with activity outcomes. Panel member name: p450-cyp2c19 Compounds with AC50 equal or less than 10 uM are considered active; type: functional; conditions: read-out: AC50
# Cytochrome P450 2C9 [1] = target: T2, Cytochrome P450 2C9 (Homo sapiens, UniProt P11712)
# Cytochrome P450 3A4 [2] = target: T3, Cytochrome P450 3A4 (Homo sapiens, UniProt P08684);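 further: CYP3A4 tested as one member of a cytochrome P450 panel screen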
# Phospholipase A2 = Phospholipase A2 (Homo sapiens, UniProt P04054); type: functional;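 further: confirmatory dose-response counterscreen on phospholipase A2, testing hits that came from an ultra-high-throughput screen for ATG4B inhibitors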
# Cysteine protease ATG4B = target: T4, Cysteine protease ATG4B (Homo sapiens, UniProt Q9Y4P1); type: functional;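 further: Fluorescence-based dose-response confirmation assay measuring inhibition of ATG4B activity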
# T4 sequence (Q9Y4P1 whole entry): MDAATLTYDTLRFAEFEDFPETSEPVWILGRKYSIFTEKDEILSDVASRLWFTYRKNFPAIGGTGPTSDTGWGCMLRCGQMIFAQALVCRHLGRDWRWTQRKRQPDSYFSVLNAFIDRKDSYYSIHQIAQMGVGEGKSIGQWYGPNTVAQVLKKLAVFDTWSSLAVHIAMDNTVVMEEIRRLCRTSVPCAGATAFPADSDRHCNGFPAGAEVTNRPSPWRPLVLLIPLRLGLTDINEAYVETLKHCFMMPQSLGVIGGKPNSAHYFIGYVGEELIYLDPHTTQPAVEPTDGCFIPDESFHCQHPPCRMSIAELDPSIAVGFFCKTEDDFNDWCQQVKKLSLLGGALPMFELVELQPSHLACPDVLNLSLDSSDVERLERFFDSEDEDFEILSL
# [3] = THP-1 cell cytotoxicity, dose response, cytotoxicity control for non-replicating M. tuberculosis project (AID 489025); type: functional
# [4] = inhibitors of intracellular T. cruzi replication, confirmation, NIH3T3 host cells, beta-gal luminescence (AID 2044); type: functional, cell-based;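 further: intracellular parasites grown in NIH/3T3 mouse fibroblasts as host cells; luminescent beta-galactosidase reporter signal from transgenic T. cruzi replicating inside host cells; inhibitors lower the luminescence signal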
# cells = type: functional
# [5] = Vero E6 cell cytotoxicity, dose response, cytotoxicity control for non-replicating M. tuberculosis project, secondary assay (AID 492998); type: functional, VeroE6; conditions: Vero C1008
# [6] = cytotoxicity toward NIH3T3 fibroblasts, dose response, counter-screen, cell-based, ATP luminescence, mouse fibroblasts (AID 2010); type: functional;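 further: cells exposed to compound for about 90 hours before reading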
# Streptokinase A = target: T5, Streptokinase A (Streptococcus pyogenes serotype M1, UniProt P10520); assay: S. pyogenes streptokinase expression inhibitors, potency, dose response, plasminogen activation absorbance, OD405 (AID 1914); type: functional, Streptococcus pyogenes M1 GAS;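 further: secreted streptokinase activity via plasminogen activation per viability signal from cell pellet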
# T5 sequence (P10520 whole entry): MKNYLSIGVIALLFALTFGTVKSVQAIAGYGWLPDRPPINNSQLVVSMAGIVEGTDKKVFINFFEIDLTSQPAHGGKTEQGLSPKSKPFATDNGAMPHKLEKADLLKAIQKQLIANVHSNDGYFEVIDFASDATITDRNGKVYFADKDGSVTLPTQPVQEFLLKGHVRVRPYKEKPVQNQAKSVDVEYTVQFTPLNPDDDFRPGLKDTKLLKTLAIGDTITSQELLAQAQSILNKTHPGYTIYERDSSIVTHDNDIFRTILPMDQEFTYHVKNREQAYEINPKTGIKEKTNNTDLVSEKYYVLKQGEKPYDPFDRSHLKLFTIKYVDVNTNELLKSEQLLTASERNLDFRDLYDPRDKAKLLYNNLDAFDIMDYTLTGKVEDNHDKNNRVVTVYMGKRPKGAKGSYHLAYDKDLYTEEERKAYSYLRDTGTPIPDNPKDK
# Streptococcus = assay: Group A Streptococcus viability loss, dose response, counter-screen for streptokinase expression inhibitor project, luminescence, BacTiterGlo (AID 1915); type: functional, organism-based;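 further: potency for reduction of bacterial viability or growth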
# [7] = target: T6, Carboxy-terminal domain RNA polymerase II polypeptide A small phosphatase 1 (Homo sapiens, UniProt Q9GZU7); assay: inhibitors of CTDSP1, concentration-response testing, biochemical assay, absorbance-based, actives from ultra-high-throughput screening (AID 540297); type: functional
# T6 sequence (Q9GZU7 whole entry): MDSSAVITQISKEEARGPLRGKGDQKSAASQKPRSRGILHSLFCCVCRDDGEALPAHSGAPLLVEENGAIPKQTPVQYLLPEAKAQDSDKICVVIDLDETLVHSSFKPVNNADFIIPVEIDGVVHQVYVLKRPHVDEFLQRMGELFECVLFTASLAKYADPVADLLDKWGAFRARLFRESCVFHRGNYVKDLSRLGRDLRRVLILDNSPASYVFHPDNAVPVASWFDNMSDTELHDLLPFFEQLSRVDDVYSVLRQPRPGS
# [8] = system: Streptococcus sp. 'group A'; assay: growth inhibition of control SK(-) GAS strain, dose response, counter-screen for streptokinase expression inhibitor project, luminescence, kanamycin, BacTiterGlo, confirmation (AID 1900); type: functional, organism-based
# Genome polyprotein = Genome polyprotein (dengue virus type 2, UniProt P29990); assay: Dengue-2 NS5 methyltransferase inhibitors, primary screen, biochemical, confirmation dose response (AID 588689); type: functional
# Cytochrome P450 3A4 [9] = target: T3, Cytochrome P450 3A4; remark: listed apart in the source
# Cytochrome P450 2D6 = Cytochrome P450 2D6 (Homo sapiens, UniProt P10635);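 further: CYP2D6 member of a cytochrome P450 panel assay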
# [10] = target: T7, Rac GTPase-activating protein 1 (Homo sapiens, UniProt Q9H0H5); assay: MgcRacGAP GTPase-activating activity inhibitors, confirmation, biochemical, ADP Hunter fluorescence, primary and confirmatory (AID 624330); type: functional
# T7 sequence (Q9H0H5 whole entry): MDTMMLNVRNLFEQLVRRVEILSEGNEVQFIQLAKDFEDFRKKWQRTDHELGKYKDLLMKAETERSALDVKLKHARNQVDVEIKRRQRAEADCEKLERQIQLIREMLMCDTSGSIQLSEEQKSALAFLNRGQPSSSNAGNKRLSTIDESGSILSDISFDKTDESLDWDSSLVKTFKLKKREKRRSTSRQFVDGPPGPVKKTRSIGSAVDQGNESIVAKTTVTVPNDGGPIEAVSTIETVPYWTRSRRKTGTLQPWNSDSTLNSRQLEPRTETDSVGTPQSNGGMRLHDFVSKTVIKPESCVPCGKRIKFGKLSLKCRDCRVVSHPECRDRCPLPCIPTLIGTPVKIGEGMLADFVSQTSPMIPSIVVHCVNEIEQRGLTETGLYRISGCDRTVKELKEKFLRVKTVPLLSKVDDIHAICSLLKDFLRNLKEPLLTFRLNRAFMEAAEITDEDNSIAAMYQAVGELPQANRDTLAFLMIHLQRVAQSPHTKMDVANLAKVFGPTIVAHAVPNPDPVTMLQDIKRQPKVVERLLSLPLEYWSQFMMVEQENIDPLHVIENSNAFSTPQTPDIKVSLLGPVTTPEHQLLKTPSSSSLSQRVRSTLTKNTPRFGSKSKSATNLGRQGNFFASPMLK
# [11] = target: Heat shock protein HSP 90-alpha (Homo sapiens, UniProt P07900); type: functional, organism-based
# [12] = inhibitors of clade B AD8 Env fusion, dose response, cell-based, cherry-pick (AID 652062); type: functional;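 further: luciferase signal from cell-cell fusion driven by HIV-1 clade B AD8 Env; potency is for inhibitors of fusion seen as a drop in luminescence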
# [13] = inhibitors of HIV Env-driven cell fusion, dose response, cherry-pick (AID 652057); type: functional, cell-based
# [14] = ZM109 Env clade C HIV-1 fusion inhibitors, dose response, HeLa effector, CEM target cells, luciferase, cherry-pick (AID 652058); type: functional, cell-based
# [15] = off-target signal loss in HeLa-CEM21 co-culture – HeLa F-luc CTL cells, cherry-picked, counter-screen for HIV-1 Env fusion inhibitor project, dose response (AID 652040); type: functional, cell-based;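 further: potency for signal decrease marking cytotoxic or nonspecific inhibition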
# Cytochrome P450 2C9 [16] = target: T2, Cytochrome P450 2C9; remark: listed apart in the source
# T3 sequence (P08684 whole entry): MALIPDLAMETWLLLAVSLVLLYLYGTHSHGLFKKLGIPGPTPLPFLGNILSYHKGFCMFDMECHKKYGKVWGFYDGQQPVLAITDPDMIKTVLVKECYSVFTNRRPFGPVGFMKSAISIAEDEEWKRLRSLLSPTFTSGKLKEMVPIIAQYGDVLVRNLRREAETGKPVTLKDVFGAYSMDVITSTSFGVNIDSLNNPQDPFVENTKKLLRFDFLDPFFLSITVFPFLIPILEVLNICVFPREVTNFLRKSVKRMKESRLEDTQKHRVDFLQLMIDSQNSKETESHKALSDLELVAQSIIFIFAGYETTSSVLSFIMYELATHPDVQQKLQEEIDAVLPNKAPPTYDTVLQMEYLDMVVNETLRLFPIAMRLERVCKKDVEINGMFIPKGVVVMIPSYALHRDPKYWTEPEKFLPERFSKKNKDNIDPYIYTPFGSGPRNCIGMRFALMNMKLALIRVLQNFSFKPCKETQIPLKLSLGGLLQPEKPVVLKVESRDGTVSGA
# Chain of Phospholipase A2 (P04054 whole entry): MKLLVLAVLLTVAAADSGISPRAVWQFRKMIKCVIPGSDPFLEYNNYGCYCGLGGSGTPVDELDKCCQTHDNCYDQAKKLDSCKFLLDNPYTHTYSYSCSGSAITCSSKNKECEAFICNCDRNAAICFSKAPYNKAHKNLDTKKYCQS
# Chain of Genome polyprotein (P29990 2492-3391 limits assumed): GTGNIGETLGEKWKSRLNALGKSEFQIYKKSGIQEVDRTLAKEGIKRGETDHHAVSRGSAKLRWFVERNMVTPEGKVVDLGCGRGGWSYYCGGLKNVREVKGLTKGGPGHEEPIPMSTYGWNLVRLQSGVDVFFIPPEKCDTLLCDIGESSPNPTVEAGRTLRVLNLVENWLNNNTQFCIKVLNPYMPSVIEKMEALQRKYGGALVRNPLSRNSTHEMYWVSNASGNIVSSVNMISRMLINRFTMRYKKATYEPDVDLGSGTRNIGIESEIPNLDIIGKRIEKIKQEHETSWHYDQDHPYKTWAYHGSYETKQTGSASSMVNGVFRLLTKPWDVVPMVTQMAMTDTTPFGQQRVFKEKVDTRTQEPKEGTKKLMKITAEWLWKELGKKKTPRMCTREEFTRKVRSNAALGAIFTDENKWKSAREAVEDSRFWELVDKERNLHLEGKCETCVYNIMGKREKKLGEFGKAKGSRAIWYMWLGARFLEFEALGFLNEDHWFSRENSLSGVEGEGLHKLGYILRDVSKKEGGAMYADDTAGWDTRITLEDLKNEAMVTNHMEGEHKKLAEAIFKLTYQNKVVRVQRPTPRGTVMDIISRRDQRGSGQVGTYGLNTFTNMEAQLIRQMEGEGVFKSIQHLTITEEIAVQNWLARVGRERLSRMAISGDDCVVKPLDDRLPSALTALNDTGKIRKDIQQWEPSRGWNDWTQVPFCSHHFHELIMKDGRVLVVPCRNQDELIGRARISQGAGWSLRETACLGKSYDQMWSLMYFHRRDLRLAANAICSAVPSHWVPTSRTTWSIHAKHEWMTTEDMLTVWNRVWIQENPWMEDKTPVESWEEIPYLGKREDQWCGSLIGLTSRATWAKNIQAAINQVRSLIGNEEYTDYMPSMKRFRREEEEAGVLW
# Chain of Cytochrome P450 2D6 (P10635 whole entry): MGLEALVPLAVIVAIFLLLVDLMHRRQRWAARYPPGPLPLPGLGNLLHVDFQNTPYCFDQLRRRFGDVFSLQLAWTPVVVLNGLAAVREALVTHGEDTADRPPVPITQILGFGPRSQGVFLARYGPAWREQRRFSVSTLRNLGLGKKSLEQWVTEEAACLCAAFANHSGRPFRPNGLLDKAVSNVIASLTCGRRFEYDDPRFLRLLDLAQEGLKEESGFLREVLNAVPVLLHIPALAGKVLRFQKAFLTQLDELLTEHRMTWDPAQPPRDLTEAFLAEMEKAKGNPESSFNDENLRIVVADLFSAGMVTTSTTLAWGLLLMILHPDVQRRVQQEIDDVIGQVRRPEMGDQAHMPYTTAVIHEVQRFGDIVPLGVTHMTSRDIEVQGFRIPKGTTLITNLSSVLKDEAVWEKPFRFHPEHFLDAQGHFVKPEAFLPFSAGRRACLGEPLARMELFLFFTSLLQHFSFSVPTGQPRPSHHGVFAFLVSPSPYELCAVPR
# T2 sequence (P11712 whole entry): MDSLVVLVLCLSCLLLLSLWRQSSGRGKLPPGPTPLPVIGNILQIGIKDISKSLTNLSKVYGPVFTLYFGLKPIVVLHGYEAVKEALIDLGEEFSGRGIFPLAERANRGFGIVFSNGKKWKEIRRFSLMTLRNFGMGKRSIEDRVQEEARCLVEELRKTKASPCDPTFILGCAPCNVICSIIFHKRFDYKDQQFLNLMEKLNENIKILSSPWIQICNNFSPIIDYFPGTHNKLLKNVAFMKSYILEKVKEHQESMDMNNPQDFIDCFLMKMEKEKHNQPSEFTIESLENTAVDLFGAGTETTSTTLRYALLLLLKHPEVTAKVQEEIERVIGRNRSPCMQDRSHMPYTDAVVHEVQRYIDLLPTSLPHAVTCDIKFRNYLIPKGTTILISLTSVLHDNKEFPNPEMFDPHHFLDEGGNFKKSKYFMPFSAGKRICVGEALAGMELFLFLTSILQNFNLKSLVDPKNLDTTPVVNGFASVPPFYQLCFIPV
# Chain of Cytochrome P450 2C19 (P33261 whole entry): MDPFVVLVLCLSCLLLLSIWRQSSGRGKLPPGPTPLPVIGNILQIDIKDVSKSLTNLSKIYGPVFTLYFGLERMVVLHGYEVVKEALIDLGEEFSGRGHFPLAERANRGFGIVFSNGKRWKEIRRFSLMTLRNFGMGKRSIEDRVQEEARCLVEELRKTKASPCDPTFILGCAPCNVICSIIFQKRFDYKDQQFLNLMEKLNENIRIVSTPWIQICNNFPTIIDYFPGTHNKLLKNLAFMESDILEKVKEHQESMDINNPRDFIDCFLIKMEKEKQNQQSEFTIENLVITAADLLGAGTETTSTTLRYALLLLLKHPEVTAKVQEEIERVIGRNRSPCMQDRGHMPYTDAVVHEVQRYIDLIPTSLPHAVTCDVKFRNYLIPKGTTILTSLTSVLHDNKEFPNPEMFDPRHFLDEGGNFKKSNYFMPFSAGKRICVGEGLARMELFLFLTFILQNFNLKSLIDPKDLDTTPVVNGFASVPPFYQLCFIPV
smiles,measurement,setting,value
Cc1ccc(OCC(=O)NNC(=O)c2cc3ccccc3o2)cc1C,AC50,Cytochrome P450 1A2,2.51 µM (inconclusive)
same,AC50,Cytochrome P450 2C19,3.55 µM (inconclusive)
same,AC50,Cytochrome P450 2C9 [1],inconclusive
c1ccc2c(CSCCc3ccncc3)cccc2c1,AC50,Cytochrome P450 3A4 [2],inconclusive
Cc1sc2nc(C(C)C)nc(SCC(=O)NCc3ccco3)c2c1C,IC50,Phospholipase A2,5.93 µM (active)
same,IC50,Cysteine protease ATG4B,11.1 µM (active)
O=C(N/N=C/c1ccc([N+](=O)[O-])s1)c1cccnc1,CC50,[3],14.9 µM (active)
same,EC50,[4],0.429 µM (active)
same,IC50,cells,11.2 µM (active)
same,CC50,[5],14.6 µM (active)
same,EC50,[6],> 60 µM (not active)
CCC[N+]1(CC#CC2(O)CCCCC2)CCOCC1,EC50,Streptokinase A,> 150 µM (not active)
same,EC50,Streptococcus,> 150 µM (not active)
same,IC50,[7],5.44 µM (active)
same,EC50,[8],> 150 µM (not active)
CCOc1cc(/C=C2/SC(=S)N(CC(=O)O)C2=O)ccc1OC(=O)c1cccs1,IC50,Genome polyprotein,56.3 µM (active)
Cc1cc(C(=O)c2cnc(/N=C/N(C)C)s2)cc(C)c1O,AC50,Cytochrome P450 3A4 [9],25.1 µM (inconclusive)
same,AC50,Cytochrome P450 2C19,25.1 µM (inconclusive)
same,AC50,Cytochrome P450 2D6,25.1 µM (inconclusive)
same,AC50,Cytochrome P450 2C9 [1],inconclusive
same,IC50,[10],108 µM (active)
CCOC(=O)C1=C(C)C/C(=N\NC(=O)c2ccccc2O)CC1,CC50,[3],21.8 µM (active)
same,IC50,cells,10.8 µM (active)
same,CC50,[5],15.3 µM (active)
COc1ccc(OC)c(N2C(=O)NC(=O)/C(=C/c3ccc([N+](=O)[O-])s3)C2=O)c1,EC50,[4],2.1 µM (active)
same,IC50,cells,23.7 µM (active)
same,IC50,Genome polyprotein,18.8 µM (active)
same,EC50,[6],> 60 µM (inconclusive)
same,AC50,[11],3.06 µM (active)
COc1cc(NS(=O)(=O)c2ccc(Nc3nc(-c4cccc([N+](=O)[O-])c4)cs3)cc2)nc(OC)n1,IC50,Phospholipase A2,9.57 µM (active)
same,IC50,Cysteine protease ATG4B,11.3 µM (active)
C=CCN([C@@H](CC(C)C)C(=O)OC)S(=O)(=O)N(CC=C)[C@@H](CC(C)C)C(=O)OC,AC50,[12],25.9 µM (active)
same,AC50,[13],6.72 µM (active)
same,AC50,[14],24.7 µM (active)
same,AC50,[15],21 µM (active)
Cn1cccc1C(=O)N1CCC2(CC1)CCN(c1ccccc1)CC2,AC50,Cytochrome P450 1A2,12.6 µM (inconclusive)
same,AC50,Cytochrome P450 3A4 [2],inconclusive
Cc1cccc(N2C(=O)N3[C@H](c4ccc(Br)cc4)[C@@H]4C(=O)N(C(C)(C)C)C(=O)[C@@H]4[C@]3(C)C2=O)c1,AC50,[12],1.69 µM (active)
same,AC50,[13],0.48 µM (active)
same,AC50,[14],0.746 µM (active)
same,AC50,[15],0.936 µM (active)
CCOC(=O)c1c(NC=C2C(=O)CC(C)(C)CC2=O)sc(C)c1C,IC50,Phospholipase A2,5.12 µM (active)
same,IC50,Cysteine protease ATG4B,5.45 µM (active)
CCOC(=O)c1ccc2nc(C)c(CCC(C)=O)c(Cl)c2c1,AC50,Cytochrome P450 2C9 [16],1 µM (inconclusive)
same,AC50,Cytochrome P450 3A4 [2],inconclusive
CC(=O)CC1(OC(C)=O)C(=O)N(C)c2ccccc21 (stereo not given),CC50,[3],35.5 µM (active)
same,IC50,cells,14.4 µM (active)
same,CC50,[5],15.5 µM (active)
COc1ccc2c(Cl)cc(NC(=S)Nc3ccccc3)nc2c1,AC50,Cytochrome P450 2C9 [16],3.98 µM (inconclusive)
same,AC50,Cytochrome P450 2C19,3.16 µM (inconclusive)
same,AC50,Cytochrome P450 3A4 [2],inconclusive
O=c1nc2n(c(O)c1C(c1ccc(O)cc1)c1c(O)nc3n(c1=O)CCS3)CCS2 (stereo not given),IC50,Genome polyprotein,48.5 µM (active)
Cc1ccc(C)c(S(=O)(=O)NCc2ccc(C(=O)N3CCC(Cc4ccccc4)CC3)cc2)c1,EC50,[4],2.66 µM (active)
same,EC50,[6],> 60 µM (not active)
same,AC50,Cytochrome P450 2C9 [1],inconclusive
Cc1ccccc1C(=O)NC(C)c1ccc2c(c1)CCCC2 (stereo not given),AC50,Cytochrome P450 2D6,15.8 µM (inconclusive)
same,AC50,Cytochrome P450 2C9 [1],inconclusive
O=C(N/N=C/c1ccco1)C1CC1c1ccccc1 (stereo not given),IC50,[7],9.59 µM (active)
CCN(CC)c1nc2ccccc2[nH]1.Cl,AC50,Cytochrome P450 2D6,25.1 µM (inconclusive)
same,AC50,Cytochrome P450 2C9 [1],inconclusive
